Results as given in ChEMBL document CHEMBL3994622, “Design and synthesis of new RAF kinase-inhibiting antiproliferative quinoline derivatives. Part 2: Diarylurea derivatives” (Eur J Med Chem, 2017).

What was measured:
Type in all cases: functional
[1] = system: UACC-257; test: Growth inhibition of human UACC257 cells incubated for 48 hrs by sulforhodamine B assay; settings: UACC-257, 48 h; for CC50: read-out: LC50 (the source's name)
[2] = system: PC-3; test: Growth inhibition of human PC3 cells incubated for 48 hrs by sulforhodamine B assay; settings: PC-3, 48 h; for CC50: read-out: LC50 (the source's name)
[3] = system: SR; test: Growth inhibition of human SR cells incubated for 48 hrs by sulforhodamine B assay; settings: for CC50: read-out: LC50 (the source's name)
[4] = system: K562; test: Growth inhibition of human K562 cells assessed as cell growth at 10 uM incubated for 48 hrs by sulforhodamine B assay relative to control; settings: K562, 48 h, read-out: Activity
[5] = system: COLO 205; test: Growth inhibition of human COLO205 cells assessed as cell growth at 10 uM incubated for 48 hrs by sulforhodamine B assay relative to control; settings: COLO 205, 48 h, read-out: Activity
[6] = system: CAKI-1; test: Growth inhibition of human Caki1 cells assessed as cell growth at 10 uM incubated for 48 hrs by sulforhodamine B assay relative to control; settings: CAKI-1, 48 h, read-out: Activity
[7] = system: K562; test: Growth inhibition of human K562 cells incubated for 48 hrs by sulforhodamine B assay; settings: K562, 48 h
[8] = system: A498; test: Growth inhibition of human A498 cells assessed as cell growth at 10 uM incubated for 48 hrs by sulforhodamine B assay relative to control; settings: A498, 48 h, read-out: Activity
[9] = system: UACC-62; test: Growth inhibition of human UACC62 cells assessed as cell growth at 10 uM incubated for 48 hrs by sulforhodamine B assay relative to control; settings: UACC-62, 48 h, read-out: Activity
[10] = system: HOP-62; test: Growth inhibition of human HOP62 cells assessed as cell growth at 10 uM incubated for 48 hrs by sulforhodamine B assay relative to control; settings: HOP-62, 48 h, read-out: Activity
[11] = system: BT-549; test: Growth inhibition of human BT549 cells assessed as cell growth at 10 uM incubated for 48 hrs by sulforhodamine B assay relative to control; settings: BT-549, 48 h, read-out: Activity
[12] = system: OVCAR-3; test: Growth inhibition of human OVCAR3 cells assessed as cell growth at 10 uM incubated for 48 hrs by sulforhodamine B assay relative to control; settings: OVCAR-3, 48 h, read-out: Activity
[13] = system: SK-MEL-2; test: Growth inhibition of human SK-MEL-2 cells assessed as cell growth at 10 uM incubated for 48 hrs by sulforhodamine B assay relative to control; settings: SK-MEL-2, 48 h, read-out: Activity
[14] = system: MCF7; test: Growth inhibition of human MCF7 cells assessed as cell growth at 10 uM incubated for 48 hrs by sulforhodamine B assay relative to control; settings: MCF7, 48 h, read-out: Activity
[15] = system: NCI-H522; test: Growth inhibition of human NCI-H522 cells assessed as cell growth at 10 uM incubated for 48 hrs by sulforhodamine B assay relative to control; settings: NCI-H522, 48 h, read-out: Activity
[16] = system: OVCAR-5; test: Growth inhibition of human OVCAR5 cells assessed as cell growth at 10 uM incubated for 48 hrs by sulforhodamine B assay relative to control; settings: OVCAR-5, 48 h, read-out: Activity
[17] = system: HCT-116; test: Growth inhibition of human HCT116 cells assessed as cell growth at 10 uM incubated for 48 hrs by sulforhodamine B assay relative to control; settings: HCT-116, 48 h, read-out: Activity
[18] = system: M14; test: Growth inhibition of human M14 cells incubated for 48 hrs by sulforhodamine B assay; settings: M14, 48 h; for CC50: read-out: LC50 (the source's name)
[19] = system: SF-295; test: Growth inhibition of human SF295 cells incubated for 48 hrs by sulforhodamine B assay; settings: SF-295, 48 h; for CC50: read-out: LC50 (the source's name)
[20] = system: UACC-257; test: Growth inhibition of human UACC257 cells assessed as cell growth at 10 uM incubated for 48 hrs by sulforhodamine B assay relative to control; settings: UACC-257, 48 h, read-out: Activity
[21] = system: SF-295; test: Growth inhibition of human SF295 cells assessed as cell growth at 10 uM incubated for 48 hrs by sulforhodamine B assay relative to control; settings: SF-295, 48 h, read-out: Activity
[22] = system: UO-31; test: Growth inhibition of human UO31 cells assessed as cell growth at 10 uM incubated for 48 hrs by sulforhodamine B assay relative to control; settings: UO-31, 48 h, read-out: Activity
[23] = system: IGROV-1; test: Growth inhibition of human IGROV1 cells assessed as cell growth at 10 uM incubated for 48 hrs by sulforhodamine B assay relative to control; settings: IGROV-1, 48 h, read-out: Activity
[24] = system: MDA-MB-468; test: Growth inhibition of human MDA-MB-468 cells assessed as cell growth at 10 uM incubated for 48 hrs by sulforhodamine B assay relative to control; settings: MDA-MB-468, 48 h, read-out: Activity
[25] = system: HCC 2998; test: Growth inhibition of human HCC2998 cells assessed as cell growth at 10 uM incubated for 48 hrs by sulforhodamine B assay relative to control; settings: HCC 2998, 48 h, read-out: Activity
[26] = system: NCI-H226; test: Growth inhibition of human NCI-H226 cells assessed as cell growth at 10 uM incubated for 48 hrs by sulforhodamine B assay relative to control; settings: NCI-H226, 48 h, read-out: Activity
[27] = system: MDA-MB-231; test: Growth inhibition of human MDA-MB-231 cells assessed as cell growth at 10 uM incubated for 48 hrs by sulforhodamine B assay relative to control; settings: MDA-MB-231, 48 h, read-out: Activity
[28] = system: HT-29; test: Growth inhibition of human HT-29 cells assessed as cell growth at 10 uM incubated for 48 hrs by sulforhodamine B assay relative to control; settings: HT-29, 48 h, read-out: Activity
[29] = system: MDA-MB-435; test: Growth inhibition of human MDA-MB-435 cells assessed as cell growth at 10 uM incubated for 48 hrs by sulforhodamine B assay relative to control; settings: MDA-MB-435, 48 h, read-out: Activity
[30] = system: CCRF-CEM; test: Growth inhibition of human CCRF-CEM cells incubated for 48 hrs by sulforhodamine B assay; settings: for CC50: read-out: LC50 (the source's name)
[31] = system: SNB-75; test: Growth inhibition of human SNB75 cells assessed as cell growth at 10 uM incubated for 48 hrs by sulforhodamine B assay relative to control; settings: SNB-75, 48 h, read-out: Activity
[32] = system: SNB-75; test: Growth inhibition of human SNB75 cells incubated for 48 hrs by sulforhodamine B assay; settings: SNB-75, 48 h; for CC50: read-out: LC50 (the source's name)

COc1cc2cc(Oc3ccc(NC(=O)Nc4ccc(Cl)c(Cl)c4)cc3)c(C)nc2cc1OC
GI50 [1]: 2.31 µM | TGI [1]: 6.28 µM | CC50 [1]: 24.4 µM | GI50 [2]: 1.53 µM | TGI [2]: 5.13 µM | CC50 [2]: 21.3 µM | GI50 [3]: 3.1 µM | TGI [3]: 10.3 µM | CC50 [3]: > 100 µM | growth at 10 µM [4]: 12.7% | growth at 10 µM [5]: 4.03% | growth at 10 µM [6]: 21.8% | GI50 [7]: 3.32 µM | LC50 (concentration killing 50% of cells) [7]: > 100 µM | TGI [7]: > 100 µM | growth at 10 µM [8]: 35.8% | growth at 10 µM [9]: 20.4% | growth at 10 µM [10]: 55.2% | growth at 10 µM [11]: 28.1% | growth at 10 µM [12]: -10% | growth at 10 µM [13]: -7.82% | growth at 10 µM [14]: 13.8% | growth at 10 µM [15]: -13.8% | growth at 10 µM [16]: 53% | growth at 10 µM [17]: 10.5% | GI50 [18]: 2.56 µM | TGI [18]: 10.5 µM | CC50 [18]: 34.7 µM | GI50 [19]: 1.96 µM | TGI [19]: 6.08 µM | CC50 [19]: 67.7 µM | growth at 10 µM [20]: 1.38% | growth at 10 µM [21]: 0.69% | growth at 10 µM [22]: 3.69% | growth at 10 µM [23]: 18.6% | growth at 10 µM [24]: -16.7% | growth at 10 µM [25]: 37.6% | growth at 10 µM [26]: 7.74% | growth at 10 µM [27]: 47.8% | growth at 10 µM [28]: 10.9% | growth at 10 µM [29]: 12.3% | GI50 [30]: 2.38 µM | TGI [30]: 14 µM | CC50 [30]: > 100 µM | growth at 10 µM [31]: 22.4% | GI50 [32]: 2.33 µM | TGI [32]: 8.28 µM | CC50 [32]: 66.1 µM

COc1cc2cc(Oc3ccc(NC(=O)Nc4cccc(C(F)(F)F)c4)cc3)c(C)nc2cc1OC
GI50 [1]: 1.09 µM | TGI [1]: 3.66 µM | CC50 [1]: 19.9 µM | GI50 [2]: 1.39 µM | TGI [2]: 5.49 µM | CC50 [2]: 30.4 µM | GI50 [3]: 1.17 µM | TGI [3]: 3.33 µM | CC50 [3]: 32 µM | growth at 10 µM [4]: 11.5% | growth at 10 µM [5]: -20.2% | growth at 10 µM [6]: 9.13% | GI50 [7]: 1.73 µM | LC50 (concentration killing 50% of cells) [7]: > 50 µM | TGI [7]: 14 µM | growth at 10 µM [8]: 21.7% | growth at 10 µM [9]: 14.5% | growth at 10 µM [10]: 25% | growth at 10 µM [11]: -8.13% | growth at 10 µM [12]: -0.54% | growth at 10 µM [13]: -35.8% | growth at 10 µM [14]: 6.81% | growth at 10 µM [15]: -17.4% | growth at 10 µM [16]: 27.8% | growth at 10 µM [17]: 6.71% | GI50 [18]: 1.67 µM | TGI [18]: 7.67 µM | CC50 [18]: 35.6 µM | GI50 [19]: 1.13 µM | TGI [19]: 3.59 µM | CC50 [19]: 27.2 µM | growth at 10 µM [20]: -14.5% | growth at 10 µM [21]: -15.1% | growth at 10 µM [22]: 11.3% | growth at 10 µM [23]: 8.77% | growth at 10 µM [24]: -32.5% | growth at 10 µM [25]: 25.4% | growth at 10 µM [26]: -23.5% | growth at 10 µM [27]: -8.32% | growth at 10 µM [28]: 6.56% | growth at 10 µM [29]: 7.23% | growth at 10 µM [31]: 13.1% | GI50 [32]: 1.17 µM | TGI [32]: 6.18 µM | CC50 [32]: > 50 µM

COc1cc2cc(Oc3ccc(NC(=O)Nc4ccc(Cl)c(C(F)(F)F)c4)cc3)c(C)nc2cc1OC
GI50 [1]: 0.71 µM | TGI [1]: 2.36 µM | CC50 [1]: 19.6 µM | GI50 [2]: 0.781 µM | TGI [2]: 2.96 µM | CC50 [2]: > 32.5 µM | GI50 [3]: 0.831 µM | TGI [3]: 2.65 µM | CC50 [3]: > 32.5 µM | growth at 10 µM [4]: -9.54% | growth at 10 µM [5]: -49.5% | growth at 10 µM [6]: -8.92% | GI50 [7]: 1.11 µM | LC50 (concentration killing 50% of cells) [7]: 23.6 µM | TGI [7]: 4.81 µM | growth at 10 µM [8]: 10.4% | growth at 10 µM [9]: -51.5% | growth at 10 µM [10]: -51% | growth at 10 µM [11]: -38.7% | growth at 10 µM [12]: -27.3% | growth at 10 µM [13]: -49.8% | growth at 10 µM [14]: 2.59% | growth at 10 µM [15]: -43.6% | growth at 10 µM [16]: 18% | growth at 10 µM [17]: -87.3% | GI50 [18]: 1.25 µM | TGI [18]: 5.25 µM | CC50 [18]: 19.2 µM | GI50 [19]: 0.899 to 0.9 µM | TGI [19]: 2.91 µM | CC50 [19]: 22.2 µM | growth at 10 µM [20]: -12.5% | growth at 10 µM [21]: -70.9% | growth at 10 µM [22]: -45.1% | growth at 10 µM [23]: -7.69% | growth at 10 µM [24]: -42.7% | growth at 10 µM [25]: -13.1% | growth at 10 µM [26]: 4.49% | growth at 10 µM [27]: -50.6% | growth at 10 µM [28]: -24.9% | growth at 10 µM [29]: -25.7% | GI50 [30]: 1.01 µM | TGI [30]: 3.09 µM | CC50 [30]: > 32.5 µM | growth at 10 µM [31]: 12.4% | GI50 [32]: 1.03 µM | TGI [32]: 4.9 µM | CC50 [32]: > 32.5 µM
